Several values for one entry are separate records, joined by “and”; a condition that tells them apart may be missing. Equal entries are not always repeated. Where no end group is shown, it is not given here.
Columns and labels:
ACTH (1-24) = target: T1, ACTH (1-24) (Homo sapiens, UniProt P01189); experiment: ELISA binding of ACTH (1-24) to HTCA-coated microtiter wells
T1 construct: 10 ug synthetic ACTH (1-24) in PBS-Tween buffer; purchased Organon (West Orange, N.J.); host or cells: chemical synthesis
Procedure: From 1 to 25 micrograms (ug) per well of HTCA or insulin in carbonate-bicarbonate coating buffer were added to 96 well round bottom microtiter plates and incubated at 4° C. for 8 hr. The plates were then washed with phosphate buffered saline PBS)-Tween 20 (Sigma Chemical Co., St. Louis, Mo.) buffer.
To the insulin-coated wells and to some of the HTCA-coated wells was added 10 ug synthetic ACTH (1-24) in PBS-Tween buffer. Control wells (HTCA alone) contained only PBS-Tween. The plates were incubated at room temperature for 2 hr. and then washed three times with PBS-Tween buffer. […] Following 3 washes with PBS-Tween buffer, alkaline phosphatase-conjugated goat anti-rabbit Ig G (Miles Laboratories, Elkharbt, Ind.) in PBS-Tween buffer (1:300 dilution was added. After inculation at room temperature for 1 hr, the plates were washed three times with PBS-Tween buffer and each well was treated with 200 microliters (ul) of p-nitrophenyl phosphate (1 mg/ml in carbonate-bicarbonate buffer) for 11/2 hr. at room temperature. The enzymatic reaction was then stopped by the addition of 3N NaOH (50 ul) to each well and the optical absorbance of p-nitrophenol the alkaline phosphatase product, was measured at 405 nm. The ACTH bound to the coated microtiter wells was measured by this enzyme-linked immunoabsorbent assay (EL1SA). […]

angiotensin II receptors = experiment: Binding of [125I] angiotensin II to isolated hepatic receptor; set-up: species or system Rabbit; settings: concentration inhibiting binding of radiolabelled angiotensin II by 50%; 0.25 nM [125I] angiotensin II; 60 minutes 20 C
Procedure: Inhibition of angiotensin II binding to angiotensin II receptors by complementary peptides was tested with measurement through the use of radioactive angiotensin II. Rabbit livers were homogenized, and were centrifuged in order to isolate particles sedimenting between 1,000 and 100,000 xg. Binding activity was solublized with 1% digitonin, followed by ammonium sulfate fractionation between 49 and 65% satuation followed by DEAE- cellulose chromatography at pH 7.5 using a linear gradient between 0.0 and 0.3 M KCl. The partially purified, solubilized receptor preparation bound 17 pmoles of angiotensin II per […] protein when analyzed by Scatchard analysis, indicating a purity of approximately 0.1%.
The standard assay for binding of angiotensin II to the receptor is as follows: The complete system (150 ul) contains 30 mM Tris-HCl, pH 7.5, 2.5 mM K2 EDTA, 0.2 mM PCMS, 0.25 nM [^125 I] angiotensin II ca. 100,000 cpm), 100 ug BSA, 0.25% (V/V) Brij 99 and 30 ug of partially purified receptor. […] Tubes are vortexed and then allowed to stand 10 minutes at 4° C., after which they are centrifuged and their supernatants, containing protein-bound angiotensin II, are counted.
The complete system under these conditions regularly yields about 10,000 cpm of bound radioactivity. […] Residual binding of radioactivity in this control was 35-45%. […]

I^125 ACTH (1-39) = target: T2, I^125 ACTH (1-39) (Homo sapiens, UniProt P01189); experiment: 125I-ACTH binding to peptide-coated microtiter wells; settings: for Bound CPM 125I-ACTH: coated wells; for Bound CPM 125I-ACTH + excess ACTH: excess unlabelled ACTH
T2 construct: I^125 ACTH (1-39) (New England Nuclear Boston, Mass.); purchased New England Nuclear, Boston, Mass
T2 sequence (P01189 138-176 limits assumed): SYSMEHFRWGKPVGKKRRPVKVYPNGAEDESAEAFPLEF
Procedure: Utilizing techniques described in Example 1B, polyvinyl microtiter wells were coated with 3'-5' HTCA from a 1 mM solution thereof or with BSA.
The BSA and 3'-5' HTCA coated wells were washed and then treated with one of three solutions of I^125 ACTH (1-39) (New England Nuclear Boston, Mass.) having different concentrations. After a forty five minute incubation period the solution was removed and the microtiter wells extensively washed. The microtiter wells were separated and assayed for iodine^125 content in a Beckman Gamma 5500 gamma counter. Bound ^125 I-ACTH was measured in duplicate at three concentrations in the absence and presence of excess unlabelled ACTH.
Utilizing the cRNA sequence and HTCA sequence shown in Table 8 of Example 1A, a series of peptides having a carboxy-terminal portion of the HTCA amino acid were synthesized. A pentamer (5-mer) contained the amino acid sequence: H^2 N-Phe-His-Gly-Val-Arg-COOH. A decamer (10-mer) contained the amino acid sequence: H^2 N-[…]COOH. A twenty membered peptide (20-mer) contained the amino acids sequence: H2 N-[…] Val-ArQ-COOH. Each of these peptides was used to coat microtiter wells and the coated wells tested for the ability to hind ^125 I-ACTH as described in Example 1C.
A 24-mer HTCA variant (R-HTCA) with reversed amino acid sequence directionality (amino-terminal and carboxy-terminal ends being reversed) was synthesized and had the following sequence: H2 N-[…] Arg-His-Leu-His-Val-Gly-COOH. The well-coating and ^125 I-ACTH binding procedures were performed as described in Example 1-C and the resultant data shown in Table 11.

[1] = test system: LHRH-stimulated release of LH from pituitary cells; experiment: Reverse hemolytic plaque assay, LHRH-stimulated LH release from pituitary cells; format: cell-based, rat; settings: Exp. 1 (Pre); 5x10^-10 M LHRH + peptide 10^-4 M
Procedure: A reverse hemolytic plaque assay (Smith, et al.), Method in Enzymology, 124, p.
Plaques were analyzed by determining plaque area with an image analysis (Bioguant or Image Technology Corp. Model 300) of ^125×-500 × microscopic enlargements.

Molecule	Bound CPM 125I-ACTH (I^125 ACTH (1-39); 1:3 dilution 125I-ACTH)	Bound CPM 125I-ACTH + excess ACTH (I^125 ACTH (1-39); 1:3 dilution 125I-ACTH)	Bound CPM 125I-ACTH + excess ACTH (I^125 ACTH (1-39); 1:9 dilution 125I-ACTH)	Bound CPM 125I-ACTH + excess ACTH (I^125 ACTH (1-39); conc 125I-ACTH)	Bound CPM 125I-ACTH (I^125 ACTH (1-39); 1:9 dilution 125I-ACTH)	Bound CPM 125I-ACTH (I^125 ACTH (1-39); conc 125I-ACTH)	also measured
GVHLHRAPLLAHRLAPAEVFHGVR [HTCA]							specific part of ACTH-HTCA binding (ACTH (1-24); wells coated 3.7 nmol/well HTCA, ELISA): about 90%
GLUGLU-VAL-LYS-GLY-VAL-TYR-ILE-HIS-ALA-LEU (EEVKGVYIHAL; printed: GLUGLU-VAL-LYS-GLY-VAL-TYR-ILE-HIS-ALA-LEU) [CCA-AI]							ID50 (angiotensin II receptors): 490 nM
RMRYLVKATPFGHPFFAAGHFHMG [3'-5' HTCA]	590 CPM	287 CPM and 299 CPM	191 CPM and 183 CPM	616 CPM and 615 CPM			binding of 125I-ACTH to coated peptide (in words) (I^125 ACTH (1-39)): binds
FHGVR [5-mer, H^2 N-Phe-His-Gly-Val-Arg-COOH]	3,514 CPM and 3,655 CPM	97 CPM and 95 CPM	56 CPM and 52 CPM	233 CPM and 245 CPM	995 CPM and 993 CPM	10,252 CPM and 11,388 CPM	
RVGHFVEAPALRHALLPARHLHVG [R-HTCA]	2,997 CPM and 3,209 CPM	140 CPM and 121 CPM	65 CPM and 69 CPM	303 CPM and 325 CPM	1,101 CPM and 1,161 CPM	10,392 CPM and 10,709 CPM	binding of 125I-ACTH to coated peptide (in words) (I^125 ACTH (1-39)): significant affinity for ACTH
Ac-KGVYIHAL-NH2 [CCA-AII (Ac, Am), Ac--LYS--GLY--VAL--TYR--ILE--HIS--ALA--LEU--Am]							ID50 (angiotensin II receptors): 3,100 nM
insulin: control coating protein [reference compound]							binding of synthetic ACTH (1-24) to coated wells (ACTH (1-24); 10 ug ACTH (1-24), coating 1 to 25 ug/well): nor does ACTH bind
C[C@H](N)C(=O)NCC(=O)N[C@H]1CSSC[C@@H](C(=O)O)NC(=O)[C@H](CO)NC(=O)[C@H]([C@@H](C)O)NC(=O)[C@H](Cc2ccccc2)NC(=O)[C@H]([C@@H](C)O)NC(=O)[C@H](CCCCN)NC(=O)[C@H](Cc2c[nH]c3ccccc23)NC(=O)[C@H](Cc2ccccc2)NC(=O)[C@H](Cc2ccccc2)NC(=O)[C@H](CC(N)=O)NC(=O)[C@H](CCCCN)NC1=O [Somatostatin]							plaque area, percentage response to control (5x10^-10 M LHRH) [1]: 103%
APAEVFHGVR [10-mer]	3391 CPM and 2931 CPM	132 CPM and 143 CPM	62 CPM and 58 CPM	345 CPM and 350 CPM	872 CPM and 1062 CPM	8,927 CPM and 9,072 CPM	
HRAPLLAHRLAPAEVFHGVR [20-mer]	613 CPM and 625 CPM	113 CPM and 83 CPM	39 CPM and 48 CPM	229 CPM and 213 CPM	238 CPM and 215 CPM	1978 CPM and 1768 CPM	
